Data taken from patent US6440948B1, “Thiophene A2A receptor agonists” (CV Therapeutics, Inc., priority 1999, dated 2002).

Biological target: T1, A2A receptor (Sus scrofa, UniProt K9IW67)
T1 construct: from tissue; host or cells: pig striatum membranes
Experiment: affinity for the A2A receptor in a pig striatum membrane prep (displacement of tritiated ZM 241385)
Assay type: binding
Conditions: pig striatal membranes, 2 nM tritiated antagonist ZM 241385, 23° C. for 2h, greater than 5 point curve
Experimental: Compounds of this invention were assayed to determine their affinity for the A2A receptor in a pig striatum membrane prep. Briefly, 0.2 mg of pig striatal membranes were treated with adenosine deaminase (2 U/mL) and 50 mM Tris buffer (pH=7,4) followed by mixing. To the pig membranes was added […] of serially diluted DMSO stock solution of the compounds of this invention at concentrations ranging from 10 nM to 100 μM or the control received […] of DMSO alone, then the: antagonist ZM 241385 in Tris buffer (50 mM, pH of 7.4) was added to achieve a final concentration of 2 nM . After incubation at 23° C. for 2h, then the solutions were filtered using a membrane harvester using multiple washing of the membranes (3x). The filter disks were counted in scintillation cocktail to determine the amount of displacement of tritiated ZM displaced by the compounds of this invention. Greater than a 5 point curve was used to generate Ki's. Compound 13 has a Ki between 1,000 and 10,000 nM.

T1 sequence (K9IW67 1-409): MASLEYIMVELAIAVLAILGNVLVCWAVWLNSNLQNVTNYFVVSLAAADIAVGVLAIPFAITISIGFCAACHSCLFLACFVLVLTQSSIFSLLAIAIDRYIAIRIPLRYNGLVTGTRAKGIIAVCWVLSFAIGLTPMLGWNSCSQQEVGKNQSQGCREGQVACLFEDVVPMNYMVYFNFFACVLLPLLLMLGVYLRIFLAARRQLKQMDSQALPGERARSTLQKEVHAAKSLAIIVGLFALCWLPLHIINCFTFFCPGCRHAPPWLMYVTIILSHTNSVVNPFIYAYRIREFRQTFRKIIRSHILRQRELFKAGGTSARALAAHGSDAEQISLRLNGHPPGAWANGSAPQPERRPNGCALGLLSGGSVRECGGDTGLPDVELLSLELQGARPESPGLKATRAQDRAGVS

## Cc1ccc(-c2nc(N)c3ncn([C@@H]4O[C@H](CO)[C@@H](O)[C@H]4O)c3n2)s1 [Compound 13, (4S,2R,3R,5R)-2-[6-Amino-2-(5-methyl(2-thienyl))purin-9-yl]-5-(hydroxymethyl)oxolane-3,4-diol]
  Ki: 1 to 10 µM
